The structures appear in SMILES notation. Read-outs that look alike come from different tables or passages of the source.

One test addresses T1, CDK4 (Homo sapiens, UniProt P11802).
T1 construct: endogenous in cells; host or cells: Calu-1
Put plainly: CDK4 percentage degradation in Calu-1 cells (immunoblotting). It counts as cell-based. The settings on record: for inhibition at 0.2 µM: read-out: CDK4 Degradation (200 nM). A digest of the protocol: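 Cultured cells were rinsed once in cold PBS and lysed in cold RIPA buffer containing protease and phosphatase inhibitors, with gentle agitation at 4° C. for 30 min. Lysates were centrifuged at 13,000 rpm for 10 min at 4° C., and protein was quantified by BCA. Samples were then separated by SDS-PAGE, detected with ECL, and the CDK4 bands quantified in Image Lab.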

A further test concerns cyclin D1. Put plainly: Cyclin D1 percentage degradation in Calu-1 cells (immunoblotting). The note with it: 16 hours. It is filed as cell-based. A digest of the protocol: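 Cells were rinsed once in cold PBS and lysed in cold RIPA buffer containing protease and phosphatase inhibitors, with gentle agitation at 4° C. for 30 min. Lysates were spun at 13,000 rpm for 10 min at 4° C., protein was measured by BCA, and samples were boiled in Laemmli buffer at 99° C. for 5 min before SDS-PAGE immunoblotting.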

T1 sequence (P11802 2-303 limits assumed): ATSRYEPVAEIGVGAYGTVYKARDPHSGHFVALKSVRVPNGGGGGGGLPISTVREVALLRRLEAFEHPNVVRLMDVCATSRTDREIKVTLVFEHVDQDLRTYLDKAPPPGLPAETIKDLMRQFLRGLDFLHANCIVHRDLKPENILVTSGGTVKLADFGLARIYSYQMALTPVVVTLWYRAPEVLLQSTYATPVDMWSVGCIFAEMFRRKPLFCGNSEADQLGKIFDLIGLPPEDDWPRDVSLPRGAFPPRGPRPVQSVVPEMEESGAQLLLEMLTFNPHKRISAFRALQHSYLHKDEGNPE
T1 sequence (P24385 whole entry partner): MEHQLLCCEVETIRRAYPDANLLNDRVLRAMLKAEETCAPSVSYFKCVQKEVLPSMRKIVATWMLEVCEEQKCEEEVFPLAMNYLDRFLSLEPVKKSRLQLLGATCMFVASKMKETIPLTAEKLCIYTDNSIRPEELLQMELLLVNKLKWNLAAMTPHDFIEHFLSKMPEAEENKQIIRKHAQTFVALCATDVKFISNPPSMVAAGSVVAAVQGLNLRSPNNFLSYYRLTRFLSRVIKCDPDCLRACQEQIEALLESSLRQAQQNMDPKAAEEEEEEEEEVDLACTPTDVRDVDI
T1 sequence (Q16531 2-1140 limits assumed, further chain): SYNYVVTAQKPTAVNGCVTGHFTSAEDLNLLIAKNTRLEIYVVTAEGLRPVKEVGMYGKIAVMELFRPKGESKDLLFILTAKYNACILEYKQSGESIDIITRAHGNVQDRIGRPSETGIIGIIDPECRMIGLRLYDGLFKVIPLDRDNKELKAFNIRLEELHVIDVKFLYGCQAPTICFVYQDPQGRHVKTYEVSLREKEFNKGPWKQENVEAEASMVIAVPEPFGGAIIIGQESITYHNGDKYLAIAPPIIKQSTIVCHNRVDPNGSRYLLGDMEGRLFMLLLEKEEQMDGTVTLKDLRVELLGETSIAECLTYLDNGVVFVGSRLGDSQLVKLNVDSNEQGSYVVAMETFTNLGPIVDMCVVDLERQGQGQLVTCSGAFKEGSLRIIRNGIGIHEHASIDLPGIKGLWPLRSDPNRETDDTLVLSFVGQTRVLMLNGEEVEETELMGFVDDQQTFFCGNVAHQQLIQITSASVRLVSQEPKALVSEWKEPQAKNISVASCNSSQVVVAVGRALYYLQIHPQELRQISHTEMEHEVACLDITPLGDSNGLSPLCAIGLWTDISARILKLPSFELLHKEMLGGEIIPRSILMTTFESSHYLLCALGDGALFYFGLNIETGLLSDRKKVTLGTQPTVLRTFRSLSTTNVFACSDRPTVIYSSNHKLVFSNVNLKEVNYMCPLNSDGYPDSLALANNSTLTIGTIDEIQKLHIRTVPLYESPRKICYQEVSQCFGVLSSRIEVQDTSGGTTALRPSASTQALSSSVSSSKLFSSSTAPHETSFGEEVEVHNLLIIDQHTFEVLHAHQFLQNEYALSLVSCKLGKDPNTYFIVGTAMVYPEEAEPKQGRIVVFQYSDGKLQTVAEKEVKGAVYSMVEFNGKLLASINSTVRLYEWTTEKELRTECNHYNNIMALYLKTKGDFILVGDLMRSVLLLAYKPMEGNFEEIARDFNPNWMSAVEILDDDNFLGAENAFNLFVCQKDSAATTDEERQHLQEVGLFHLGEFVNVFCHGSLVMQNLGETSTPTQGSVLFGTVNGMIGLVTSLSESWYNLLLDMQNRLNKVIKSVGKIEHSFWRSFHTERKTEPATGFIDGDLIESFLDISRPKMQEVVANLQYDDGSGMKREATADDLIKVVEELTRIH

On to `CC(=O)c1c(C)c2cnc(Nc3ccc(N4CCN(CC(=O)NCCCCCCCCCNC(=O)COc5ccc(C(=O)Nc6ncc(C)s6)c(C)c5)CC4)cn3)nc2n(C2CCCC2)c1=O` [CPD-038, 4-(2-((9-(2-(4-(6-((6-Acetyl-8-cyclopentyl-5-methyl-7-oxo-7,8-dihydropyrido[2,3-d]pyrimidin-2-yl)amino)pyridin-3-yl)piperazin-1-yl)acetamido)nonyl)amino)-2-oxoethoxy)-2-methyl-N-(5-methylthiazol-2-yl)benzamide], for which the inhibition at 0.2 µM on CDK4 (Calu-1 cells, 200 nM, 16 hours) was < 30%. Also, in the test with cyclin D1, the “CyclinD1 Degradation (200 nM)” value is listed as “D (protein percentage degradation <30%)”.
Take `CC(=O)c1c(C)c2cnc(Nc3ccc(N4CCN(CC(=O)NCCCCCCCNc5cccc(C(=O)Nc6ccc(C)nc6)c5C)CC4)cn3)nc2n(C2CCCC2)c1=O` [CPD-328, 3-((7-(2-(4-(6-((6-Acetyl-8-cyclopentyl-5-methyl-7-oxo-7,8-dihydropyrido[2,3-d]pyrimidin-2-yl)amino)pyridin-3-yl)piperazin-1-yl)acetamido)heptyl)amino)-2-methyl-N-(6-methylpyridin-3-yl)benzamide]: the inhibition at 0.2 µM at CDK4 (Calu-1 cells, 200 nM, 16 hours) was < 30%. Further, the “CyclinD1 Degradation (200 nM)” value with cyclin D1 is given as “D (protein percentage degradation <30%)”.
Consider `CC(=O)c1c(C)c2cnc(Nc3ccc(N4CCN(C(=O)CCNc5ccc(C)c(C(=O)Nc6nc(C)c(C)s6)c5)CC4)cn3)nc2n(C2CCCC2)c1=O` [CPD-091, 5-((3-(4-(6-((6-Acetyl-8-cyclopentyl-5-methyl-7-oxo-7,8-dihydropyrido[2,3-d]pyrimidin-2-yl)amino)pyridin-3-yl)piperazin-1-yl)-3-oxopropyl)amino)-N-(4,5-dimethylthiazol-2-yl)-2-methylbenzamide], for which the inhibition at 0.2 µM on CDK4 (Calu-1, 16 h) is < 30%. For the same molecule, the “CyclinD1 Degradation (200 nM)” value with cyclin D1 is on record as “D (protein percentage degradation <30%)”.
As for `CC(=O)c1nc(NC(=O)c2ccc(NCCOCCOCCOCCOCCOCCNC(=O)CN3CCN(c4ccc(Nc5ncc6c(C)c(C(C)=O)c(=O)n(C7CCCC7)c6n5)nc4)CC3)cc2C)sc1C` [CPD-045, N-(4-Acetyl-5-methylthiazol-2-yl)-4-((1-(4-(6-((6-acetyl-8-cyclopentyl-5-methyl-7-oxo-7,8-dihydropyrido[2,3-d]pyrimidin-2-yl)amino)pyridin-3-yl)piperazin-1-yl)-2-oxo-6,9,12,15,18-pentaoxa-3-azaicosan-20-yl)amino)-2-methylbenzamide], the inhibition at 0.2 µM on CDK4 (Calu-1 cells, 200 nM, 16 hours) was in the range of 50 to 80%. Besides, the “CyclinD1 Degradation (200 nM)” value in the test on cyclin D1 is on record as “A (protein percentage degradation >=80%)”.
As for `Cc1nc(NC(=O)c2ccccc2NC(=O)CCCCCCCCNC(=O)CN2CCN(Cc3ccc(Nc4ncc(F)c(-c5cc(F)c6nc(C)n(C(C)C)c6c5)n4)nc3)CC2)sc1C` [CPD-279, N-(4,5-Dimethylthiazol-2-yl)-2-(9-(2-(4-((6-((5-fluoro-4-(4-fluoro-1-isopropyl-2-methyl-1H-benzo[d]imidazol-6-yl)pyrimidin-2-yl)amino)pyridin-3-yl)methyl)piperazin-1-yl)acetamido)nonanamido)benzamide], the inhibition at 10 µM at CDK4 (Calu-1 cells, 10 μM, 16 hours, read-out: CDK4 Degradation (10 μM)) was < 30%. For the same molecule, the “CyclinD1 Degradation (10 μM)” value in the test with cyclin D1 (10 μM) is “D (protein percentage degradation < 30%)”.
`CC(=O)c1c(C)c2cnc(Nc3ccc(N4CCN(C(=O)CCOCCOCCOCCOCCOCCNc5ccc(C)c(C(=O)Nc6nc(C)c(C)s6)c5)CC4)cn3)nc2n(C2CCCC2)c1=O` [CPD-134, 5-((18-(4-(6-((6-Acetyl-8-cyclopentyl-5-methyl-7-oxo-7,8-dihydropyrido[2,3-d]pyrimidin-2-yl)amino)pyridin-3-yl)piperazin-1-yl)-18-oxo-3,6,9,12,15-pentaoxaoctadecyl)amino)-N-(4,5-dimethylthiazol-2-yl)-2-methylbenzamide]: at CDK4 (Calu-1, 16 h), the inhibition at 0.2 µM was < 30%. Further, the “CyclinD1 Degradation (200 nM)” value in the test with cyclin D1 is listed as “D (protein percentage degradation <30%)”.
For `CC(=O)c1c(C)c2cnc(Nc3ccc(N4CCN(CC(=O)NCCOCCOCCC(=O)Nc5cccc(Cl)c5C(=O)Nc5ccc(C)cn5)CC4)cn3)nc2n(C2CCCC2)c1=O` [CPD-337], at CDK4 (Calu-1 cells, 200 nM, 16 hours), the inhibition at 0.2 µM was < 30%. For the same molecule, in the test on cyclin D1, the “CyclinD1 Degradation (200 nM)” value is “D (protein percentage degradation <30%)”.

The values above are taken from patent publication US20250235543A1, “MODIFIED PROTEINS AND PROTEIN DEGRADERS” (Cullgen (Shanghai), Inc., priority 2021, published 2025).
